SMILES strings stand for the structures. Entries after “also recorded” stand apart in the source; their conditions may differ.

One test has as its target T1, IGF-1R (Homo sapiens, UniProt P08069).
T1 construct: endogenous in cells; host or cells: A673, H322, HT-29 tumor cells
Briefly: IGF-1R phosphorylation (pIGF-1R) in tumor cells, RTK capture array. The format is cell-based. The following applies: OSI-906 3 uM, 24 hours. The source says: The media was removed, cells were washed two times with PBS, and cells were lysed as previously described.

A further test concerns Akt pathway. Briefly: Downstream signaling (pAkt, pErk) in tumor cell lysates, Western blotting. It counts as cell-based, human. The following applies: H322 NSCLC and HT-29 CRC cells; OSI-906 3 uM or MAB-391 2 ug/ml; 24 hours. How it is done: Cell extracts were prepared by detergent lysis (50 mM Tris-HCl, pH 8.0, 150 mM NaCl, 1% NP-40, 0.5% sodium deoxycholate, 0.1% SDS, containing protease inhibitor (P8340, Sigma, St. Louis, Mo.) and phosphatase inhibitor (P5726, Sigma, St. Louis, Mo.) cocktails. The soluble protein concentration was determined by micro-BSA assay (Pierce, Rockford Ill.). Protein immunodetection was performed by electrophoretic transfer of SDS-PAGE separated proteins to nitrocellulose, incubation with antibody, and chemiluminescent second step detection (PicoWest; Pierce, Rockford, Ill.). The antibodies included: phospho-Akt(473) and total Akt. Both antibodies were obtained from Cell Signaling Technology, Inc. (Danvers, Mass.). For analysis of an agent's effect on the phosphorylation of downstream signaling proteins, cell lines were grown to approximately 70% confluency, at which time the indicated agent was added at the indicated concentration, and cells were incubated at 37° C. for 24 hours. The media was removed, cells were washed two times with PBS, and cells were lysed as previously described.

In a further test the test system is IGF-1R and IR. In words: Biochemical potency against IGF-1R and IR. The following applies: comparison of IGF-1R and IR.

T1 sequence (P08069 31-1367): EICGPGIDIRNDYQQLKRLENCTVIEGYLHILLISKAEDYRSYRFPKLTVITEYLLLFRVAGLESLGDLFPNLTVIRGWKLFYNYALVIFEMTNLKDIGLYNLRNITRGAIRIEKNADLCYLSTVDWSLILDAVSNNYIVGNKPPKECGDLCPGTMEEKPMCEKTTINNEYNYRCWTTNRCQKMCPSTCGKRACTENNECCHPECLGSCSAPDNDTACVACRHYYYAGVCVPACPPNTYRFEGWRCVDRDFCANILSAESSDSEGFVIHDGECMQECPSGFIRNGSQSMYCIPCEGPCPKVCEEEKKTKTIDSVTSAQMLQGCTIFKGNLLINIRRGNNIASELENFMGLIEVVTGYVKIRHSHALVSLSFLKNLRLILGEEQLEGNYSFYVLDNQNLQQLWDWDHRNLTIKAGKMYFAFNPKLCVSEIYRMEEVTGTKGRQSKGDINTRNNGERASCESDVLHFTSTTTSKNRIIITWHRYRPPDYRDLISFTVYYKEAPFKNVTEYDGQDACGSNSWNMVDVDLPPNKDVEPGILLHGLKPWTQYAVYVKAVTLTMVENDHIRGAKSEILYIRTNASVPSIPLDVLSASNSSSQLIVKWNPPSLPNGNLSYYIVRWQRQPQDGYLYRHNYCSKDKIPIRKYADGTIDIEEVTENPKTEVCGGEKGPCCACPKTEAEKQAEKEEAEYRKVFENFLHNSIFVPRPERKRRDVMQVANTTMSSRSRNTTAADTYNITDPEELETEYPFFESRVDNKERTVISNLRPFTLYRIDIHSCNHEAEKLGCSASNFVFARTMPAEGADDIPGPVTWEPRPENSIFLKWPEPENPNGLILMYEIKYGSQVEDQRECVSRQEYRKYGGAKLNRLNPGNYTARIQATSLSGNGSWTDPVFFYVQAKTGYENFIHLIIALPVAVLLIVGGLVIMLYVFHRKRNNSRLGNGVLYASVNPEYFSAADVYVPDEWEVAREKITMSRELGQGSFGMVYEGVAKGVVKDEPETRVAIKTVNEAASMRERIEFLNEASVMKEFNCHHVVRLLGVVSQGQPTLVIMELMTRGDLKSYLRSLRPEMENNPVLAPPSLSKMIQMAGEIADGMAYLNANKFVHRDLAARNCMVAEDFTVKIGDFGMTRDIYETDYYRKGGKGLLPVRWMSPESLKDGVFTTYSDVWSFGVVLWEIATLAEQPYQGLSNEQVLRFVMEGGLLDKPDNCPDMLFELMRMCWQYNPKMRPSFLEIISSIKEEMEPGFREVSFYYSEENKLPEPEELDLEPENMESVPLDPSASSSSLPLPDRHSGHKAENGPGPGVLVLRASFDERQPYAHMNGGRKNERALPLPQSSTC

Turning to `C[C@]1(O)C[C@@H](c2nc(-c3ccc4ccc(-c5ccccc5)nc4c3)c3c(N)nccn32)C1` [OSI-906, cis-3-[8-amino-1-(2-phenyl-quinolin-7-yl)-imidazo[1,5-a]pyrazin-3-yl]-1-methyl-cyclobutanol], the “inhibition of IGF-1R (pIGF-1R)” value against IGF-1R (A673 Ewing's Sarcoma cells) was “inhibits both IR and IGF-1R”. The “inhibition of pIGF-1R” value against IGF-1R (H322 and HT-29 cells (FIG. 2)) was “robust inhibition of both pIR and pIGF-1R”. The “inhibition of the Akt pathway (pAkt)” value with Akt pathway is on record as “greater blockade of the Akt pathway; also recorded: greater capacity to inhibit the Akt pathway”. Further, the “biochemical potencies against IGF-1R and IR” value in the test with IGF-1R and IR is “similar”.

(Values after patent US20120189641A1, “COMBINATION ANTI-CANCER THERAPY” (OSI PHARMACEUTICALS, LLC, priority 2009, published 2012).)
